Target: T1, Thermus thermophilus TtPFK optical probe 254/256-TtPFK-cpYFP variant, TtPFK S216L/I253Q/Q254L/G256V/G257L, cpYFP Y1T/N246F (Thermus thermophilus, UniProt P21777, form not given/G256V/G257L/I253Q/Q254L/S216L)
T1 construct: the numbering corresponds to the full length of the phosphoenolpyruvate-sensitive polypeptide; His-tag; made in house; host or cells: E. coli BL21 (DE3), pCDF vector
Test: phosphoenolpyruvate titration of purified optical probe (fluorescence ratio)
Format: binding
Details: phosphoenolpyruvate 0 to 10 mM, purified probe treated 10 minutes, ex 420/485 nm, em 528 nm
Protocol: • 1. The expression vectors (for example, a phosphoenolpyruvate optical probe expression vector based on pCDF.) were transformed into BL21 (DE3) cells, incubated inverted overnight, and the clones were picked from the plates into 250 mL Erlenmeyer flasks, placed in a shaker at 37 °C and incubated at 220 rpm to OD=0.4-0.8, then 1/1000 (V/V) of IPTG (1 M) was added to induce expression at 18 °C for 24-36 hours. • 2. Upon completion of inducible expression, cells were harvested by centrifugation at 4000 rpm for 30 min, resuspended in 50 mM phosphate buffer and disrupted ultrasonically until the broth were clear, centrifuged at 9600 rpm at 4 °C for 20 min. • 3. The centrifuged supernatant was used to obtain protein by purification through a self-packed nickel column affinity chromatography column, and the protein obtained after nickel column affinity chromatography was further used to obtain protein dissolved in 100 mM HEPES buffer (pH 7.4). • 4. After purified proteins were subjected to SDS-PAGE, probes were diluted to a protein solution having a final concentration of 0.2-5 µM using assay buffer (100 mm HEPES, 100 mM NaCl, pH 7.4). Phosphoenolpyruvate was formulated as a stock solution at a final concentration of 50 mM with the assay buffer (100 mM HEPES, 100 mM NaCl, pH 7.4). • 5. 100 µl 1 µM of protein solution was taken, incubated at 37 °C for 10 min, phosphoenolpyruvate was added for titration, and the fluorescence intensity of 528 nm emission after 420 nm and 485 nm fluorescence excitation of the protein was measured. The fluorescence excitation and emission determination of the samples were done using a multifunctional fluorescence microplate reader. • 6. 100 µl 1 µM of protein solution was taken, incubated at 37 °C for 10 min, and phosphoenolpyruvate was added to determine the absorption and fluorescence spectra of the proteins. Determination of the absorption and fluorescence spectra of the samples was done by spectrophotometer and spectrofluorometer.
For the 254/255-TtPFK-cpYFP obtained in Example 2 and the 254/255-TtPFK-I253G/Q254L/R255L/G256F-cpYFP-Y1P, 254/255-TtPFK-I253K/Q254L/R255L/G256F-cpYFP-Y1S and 254/256-TtPFK-I253Q/Q254L/G256V/G257L-cpYFP-Y1T/N246F optical probes obtained in Example 6, amino acid were mutated at positions R21, R25, V54, R55, V57, A58, N59, I60, I61, R155, G186, R212, G213, K214, K215, S216 and L320 in the phosphoenolpyruvate binding pocket, and at positions R72, R163, R172 and R246 in the ATP binding pocket to adjust the affinity of the phosphoenolpyruvate optical probe to phosphoenolpyruvate and the substrate specificity. The probes were linearized by reverse PCR, and the sequences of the mutation sites were introduced into the primers. The obtained PCR products were subjected to homologous recombination to obtain plasmids containing the above site mutations. The mutant plasmids were transformed into BL21 (DE3) for induced expression, and the mutant probe proteins were purified for the phosphoenolpyruvate response test. The detection signal of the fusion fluorescent protein containing 2 mM phosphoenolpyruvate was divided by the detection signal of the fusion fluorescent protein without phosphoenolpyruvate. […]

T1 sequence (P21777 other isoform, or with tags, fused parts or gaps S216L, form open): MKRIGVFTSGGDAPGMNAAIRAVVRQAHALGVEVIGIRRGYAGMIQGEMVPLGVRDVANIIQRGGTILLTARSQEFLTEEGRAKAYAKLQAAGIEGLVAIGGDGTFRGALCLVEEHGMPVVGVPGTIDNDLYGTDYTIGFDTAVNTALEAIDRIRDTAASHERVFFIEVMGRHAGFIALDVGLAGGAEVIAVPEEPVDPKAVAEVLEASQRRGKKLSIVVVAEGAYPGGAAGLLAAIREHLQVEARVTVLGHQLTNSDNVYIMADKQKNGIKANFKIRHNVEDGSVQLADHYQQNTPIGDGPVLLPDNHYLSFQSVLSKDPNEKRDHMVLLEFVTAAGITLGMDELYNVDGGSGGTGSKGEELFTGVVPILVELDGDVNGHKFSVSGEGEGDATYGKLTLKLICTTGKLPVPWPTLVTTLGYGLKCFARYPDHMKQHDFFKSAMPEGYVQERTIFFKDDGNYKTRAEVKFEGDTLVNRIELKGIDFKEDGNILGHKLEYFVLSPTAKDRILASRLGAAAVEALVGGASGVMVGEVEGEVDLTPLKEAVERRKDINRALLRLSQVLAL

With `C=C(OP(=O)(O)O)C(=O)O` [phosphoenolpyruvate, Phosphoenolpyruvate] as the compound, how does the Kd read?
Its Kd is 1390 nM.

— patent publication EP4624497A1, “PHOSPHOEN[…] PROBE, PREPARATION METHOD THEREFOR AND APPLICATION THEREOF” (priority 2022, dated 2024)
